Test system: nuclear SFKs
Experiment: In vitro tyrosine phosphorylation of purified nuclei (kinase activity of nuclear SFKs)
Type: biochemical, monkey
Conditions: purified COS-1 nuclei, 10 μM PP2, FIGS. 30 and 31
Protocol: Nuclei were prepared as described previously. In brief, COS-1 and HeLa cells were swollen in hypotonic buffer (10 mM HEPES-KOH, pH 7.9, 1.5 mM MgCl2, 10 mM KCl, 0.5 mM DTT, and 1 mM Na3VO4) containing protease inhibitors (2 mM phenylmethylsulfonyl fluoride, 50 μg/mL aprotinin, 100 μM leupeptin, and 25 μM pepstatin A) at 4° C. for 20 min, followed by homogenization with 20 strokes in a tight-fitting 1-ml Dounce homogenizer. After cell suspension was centrifuged at 200×g for 5 min, cell pellets were resuspended in 0.25 M sucrose containing protease inhibitors, 10 mM MgCl2, and 1 mM Na3VO4. […]
Confocal and Nomarski differential-interference-contrast images were obtained using a Fluoview FV500 confocal laser scanning microscope with a 40×1.00 NA oil and a 100×1.35 NA oil immersion objective (Olympus, Tokyo) and an LSM 510 confocal laser scanning microscope with a 63×1.40 NA oil immersion objective (Zeiss), as described. […] Emission signals were detected between 505 and 525 nm for fluorescein, at more than 560 nm for rhodamine and more than 610 nm for PI [44]. […] Fluorescence intensity plots of anti-histone H3K4me3, anti-ATF-2 pT69/71 and anti-HP1α antibody and PI staining (see FIGS. 18B, 19B, and 20B, respectively) were generated using Fluoview version 4.3 software (Olympus, Tokyo). […]

ATP-induced increase in nuclear tyrosine phosphorylation in purified nuclei: significantly inhibited
SMILES: CC(C)(C)n1nc(-c2ccc(Cl)cc2)c2c(N)ncnc21 [PP2]

From patent US10072304B2, “Nuclear localization of Src-family tyrosine kinases is required for growth factor-induced euchromatinization” (National University Corporation Chiba University, priority 2009, dated 2018)
